Data: ChEMBL document CHEMBL4673313, “Small-Molecule Inhibitors Directly Targeting KRAS as Anticancer Therapeutics” (J Med Chem, 2020)

Columns and labels:
[1] = Binding affinity to GppNHp-bound N-terminal His6-tagged KRAS4B G12D mutant (1 to 169 residues) (unknown origin) by microscale thermophoresis; set-up: species or system Homo sapiens
[2] = Binding affinity to GppNHp-bound N-terminal His6-tagged KRAS4B G12D mutant (1 to 169 residues) (unknown origin) at 10 uM by 19F NMR Spectroscopy; set-up: species or system Homo sapiens
[3] = Binding affinity to GppNHp-bound N-terminal His6-tagged KRAS4B G12D mutant (1 to 169 residues) (unknown origin) by isothermal titration calorimetry; set-up: species or system Homo sapiens
[4] = tested on: DLD-1; experiment: Antiproliferative activity against human DLD-1 cells; assay type: functional, cell-based
[5] = tested on: GTPase KRas (Homo sapiens), P01116 [G12C]; experiment: Binding affinity to human hexahistidine-tagged KRas G12C mutant (1 to 169 residues) expressed in Escherichia coli(BL21 (DE3)) assessed as rate constant for covalent modification by measuring Kobs/[I] at 10 uM by liquid chromatography-electrospray mass spectrometry analysis
[6] = tested on: GTPase KRas (Homo sapiens), P01116 [G12C]; experiment: Covalent binding affinity to GDP-loaded hexahistidine-tagged KRas G12C mutant (1 to 169 residues) (unknown origin) expressed in Escherichia coli assessed as rate constant by liquid chromatography-electrospray mass spectrometry analysis
[7] = Oral bioavailability in BALB/c mouse at 10 mg/kg by LC-MS/MS analysis; assay type: ADME, organism-based; conditions: in vivo
[8] = target: GTPase KRas (Homo sapiens, UniProt P01116, G12D); experiment: Binding affinity to 15N-labelled GDP bound KRas G12D mutant ( 1 to 169 residues) (unknown origin) expressed in Escherichia coli Rosetta 2 (DE3) cells by 1H/15N- HSQC spectroscopy
[9] = tested on: DLD-1; experiment: Antiproliferative activity against human DLD-1 cells harboring KRAS G13D mutant incubated for 72 hrs by CellTitreGlo assay; assay type: functional, cell-based; conditions: DLD-1, 72 h
[10] = tested on: DLD-1; experiment: Antiproliferative activity against human DLD-1 cells incubated for 72 hrs by CellTitreGlo assay; assay type: functional, cell-based; conditions: DLD-1, 72 h
[11] = target: T1, GTPase KRas (Homo sapiens, UniProt P01116); experiment: Inhibition of KRas activation in HEK 293T-REx Flp-In cells harboring Venus-RBD-CRD/mCherry-CAAX assessed as reduction in Venus-RBD-CRD recruitment to plasma membrane by inverted confocal microscopy; set-up: species or system Flp-In-T-REx-293
[12] = tested on: A549; experiment: Antiproliferative activity against human A549 cells incubated for 3 days by CellTiter-Glo assay; assay type: functional, cell-based; conditions: A549, 72 h
[13] = target: T1, GTPase KRas; experiment: Inhibition of GDP-bound KRas activation (unknown origin) expressed in Escherichia coli Rosetta2 (DE3) cells assessed as reduction in SOS-catalyzed nucleotide exchange at 1 mM in presence of BODIPY-GTP by fluorescence method relative to control
[14] = tested on: NCI-H358; experiment: Antiproliferative activity against human NCI-H358 cells incubated for 14 days by alamar blue dye based assay; assay type: functional, cell-based; conditions: NCI-H358, 336 h

NC1(C(=O)NCCCn2cc(-c3ccc(OC(F)(F)F)cc3)c3cc(CN4CCN(Cc5c(Cl)cccc5Cl)CC4)ccc32)CCNCC1
Kd [1]: 9 µM | Kd [2]: 9 µM | Kd [3]: 9 µM | IC50 [4]: 8.8 µM

C=CC(=O)N1CC(N2CCN(C(=O)CNc3cc(C4(C)CC4)c(Cl)cc3O)CC2)C1
K [5]: 140 M⁻¹ s⁻¹ | K [6]: 76 M⁻¹ s⁻¹ | bioavailability [7]: > 60%

C=CC(=O)N1CCN(c2ncnc3c(F)c(-c4c(O)cccc4F)c(Cl)cc23)CC1 (atropisomer S)
K [5]: 1100 M⁻¹ s⁻¹

c1ccc2c(Cc3nc4ccncc4[nH]3)c[nH]c2c1
Kd [8]: 1.3 mM

COc1nc(-c2cccc3c2OCCO3)ccc1Nc1ccc(CN(C)C)cc1
IC50 [9]: 8 µM

COc1cccc(-c2ccc(Nc3ccc(CN(C)C)cc3)c(OC)c2F)c1
IC50 [10]: 4.5 µM

Cc1[nH]c2cc(Cl)cc(Cl)c2c1CCN
EC50 [11]: 15.8 µM

CCCC(CCC)COC(=O)[C@@H](C)NP(=O)(OCCNC(=O)CCl)OP(=O)(O)OC[C@H]1O[C@@H](n2cnc3c(=O)[nH]c(N)nc32)[C@H](O)[C@@H]1O (stereo partly specified)
EC50 [12]: 43.8 µM

C=CC(=O)N1CCN(c2ncnc3cc(-c4ccccc4O)c(Cl)cc23)CC1
K [5]: 12 M⁻¹ s⁻¹

CC[C@H](C)[C@H](N)C(=O)Nc1ccc2nc(Cc3c[nH]c4ccccc34)[nH]c2c1
inhibition [13]: 78%

Cn1cnc(Cn2ccc3ccc(CNCc4[nH]c5ccccc5c4[C@H]4NC(=O)c5ccc(O)cc54)cc32)c1
IC50 [14]: 6.7 µM
